Patent US8519007B2, “Use certain diterpene compounds in the treatment of androgen receptor-associated diseases” (Academia Sinica, priority 2008, dated 2013)

Experiments:
AR-LBD = biological target: T1, AR-LBD (Homo sapiens, UniProt P10275); assay: One-hybrid assay (GBD-AR-LBD) in 22Rv1 cells; assay type: cell-based; details: 10 nM DHT, 20 h
T1 construct: expressed in transfected cells; host or cells: 22Rv1
T1 sequence (P10275 669-900 limits assumed): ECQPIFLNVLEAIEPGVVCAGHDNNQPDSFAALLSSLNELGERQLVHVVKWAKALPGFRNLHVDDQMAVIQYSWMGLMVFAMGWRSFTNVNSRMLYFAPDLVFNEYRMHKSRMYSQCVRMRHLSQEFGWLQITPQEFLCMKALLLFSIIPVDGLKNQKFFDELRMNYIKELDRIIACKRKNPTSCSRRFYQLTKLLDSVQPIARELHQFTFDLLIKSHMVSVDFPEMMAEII
Experimental: The molecular mechanism whereby HDHS represses AR activity was analyzed by the following experiments. […] The transfected cells were treated with vehicle or various compounds for another 20 h.

[1] = biological target: T2, AR-LBD interaction with the full-length AR (Homo sapiens, UniProt P10275); assay: Two-hybrid interaction assay in PC-3 cells; assay type: cell-based; details: 20 h
T2 construct: expressed in transfected cells; host or cells: PC-3
T2 sequence (P10275 669-900 limits assumed): T1 sequence (P10275 669-900 limits assumed)
Experimental: Second, the AR-LBD interaction with the full-length AR can be detected by a two-hybrid interaction assay in PC-3 cells through transfection of GBD-AR-LBD and AR fused with the VP16 activation domain (AR-VP16). […] The transfected cells were treated with vehicle or various compounds for another 20 h. Luciferase activity was measured using the luciferase reporter gene assay system (Promega, Madison, Wis.) and normalized against respective Renilla luciferase values.

AR = biological target: T3, AR (Homo sapiens, UniProt P10275, T878A); assay: AR nuclear translocation by confocal immunofluorescence in LNCaP cells; assay type: cell-based; details: steroid-deprived, 5 to 10 μM, 1 h
T3 construct: endogenous in cells; host or cells: LNCaP
T3 sequence (P10275 1-920 T878A): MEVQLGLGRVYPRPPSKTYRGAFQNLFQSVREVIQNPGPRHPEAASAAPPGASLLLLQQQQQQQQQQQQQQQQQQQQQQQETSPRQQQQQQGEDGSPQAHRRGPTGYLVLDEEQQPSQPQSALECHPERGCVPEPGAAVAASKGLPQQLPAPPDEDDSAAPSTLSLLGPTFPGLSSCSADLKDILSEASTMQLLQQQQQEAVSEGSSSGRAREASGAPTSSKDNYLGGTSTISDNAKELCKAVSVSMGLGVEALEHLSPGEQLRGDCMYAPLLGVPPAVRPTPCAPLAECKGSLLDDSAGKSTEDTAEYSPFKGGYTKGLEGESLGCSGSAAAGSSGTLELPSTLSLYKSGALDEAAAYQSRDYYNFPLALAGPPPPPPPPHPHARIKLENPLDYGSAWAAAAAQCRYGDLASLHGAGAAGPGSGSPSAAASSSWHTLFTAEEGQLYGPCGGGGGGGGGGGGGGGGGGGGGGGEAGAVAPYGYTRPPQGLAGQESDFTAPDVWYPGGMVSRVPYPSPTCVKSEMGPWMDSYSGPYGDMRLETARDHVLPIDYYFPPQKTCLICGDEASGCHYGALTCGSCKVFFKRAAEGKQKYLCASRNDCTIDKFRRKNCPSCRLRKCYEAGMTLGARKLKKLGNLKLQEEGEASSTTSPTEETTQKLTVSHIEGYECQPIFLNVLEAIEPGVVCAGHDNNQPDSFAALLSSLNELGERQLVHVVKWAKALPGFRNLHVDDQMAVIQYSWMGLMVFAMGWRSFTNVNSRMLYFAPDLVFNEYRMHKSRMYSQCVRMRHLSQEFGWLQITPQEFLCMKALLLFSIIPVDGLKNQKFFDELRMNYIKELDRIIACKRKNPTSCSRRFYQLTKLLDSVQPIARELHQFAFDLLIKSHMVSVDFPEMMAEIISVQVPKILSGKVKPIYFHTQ
Experimental: Specifically, LNCaP cells were grown in medium containing 5% charcoal-dextran stripped FBS on 12-mm coverslips for 48 h and then treated with vehicle or various compound treatments for another 1 h. Cells were fixed with 4% (v/v) paraformaldehyde on ice for 15 min, permeabilized with 0.2% (v/v) Triton X-100/PBS, and then washed with PBS three times. […] The samples were washed again and mounted in mounting medium (Vector, Burlingame, Calif.). The cellular location of AR was visualized by confocal microscopy (LSM 510 META, Carl Zeiss GmbH, Jena, Germany) and analyzed using the manufacturer's software.

PC-3 cells [2] = assay: Western blot of caspases and PARP; assay type: cell-based, human; details: PC-3, 10 μM, 24 h
Experimental: During apoptosis, various caspases are activated which are involved in the cleavage and […] a range of cellular substrates, including […] the DNA repair enzyme PARP (Herceg Z et al., Mol Cell Biol 1999;10:5124-33; Okada H et al., Nat Rev Cancer 2004; 4:592-603). In the presence of 10 μM HDHS, PARP cleavage was observed, and at the same time caspase-3 and -7 were activated by proteolytic cleavage (FIG. 4B, lane 5). […] In contrast, activation of caspase-3 and -7 or cleavage of PARP were not detected in PC-3 cells treated with 10 μM HDHS for 24 h (FIG. 4B, lane 10). Tumor suppressor p53 is a control for the G1 checkpoint and cell apoptosis, and LNCaP cells express wild-type p53 (van Bokhoven A et al., Prostate 2003; 57:205-25).

PC-3 cells [3] = assay: Morphology of treated cells; details: PC-3, up to 50 μM
From the text: The long-term effect of HDHS on the malignant growth of AR-dependent (22Rv1, and LNCaP) and AR-independent (PC-3) PCa cells was examined by colony-forming growth assay.

CC(C)c1cc2c(cc1O)[C@@]1(C)CCCC(C)(C)C1=C(O)C2=O [Compound 2, 6,12-dihydroxyabieta-5,8,11,13-tetraen-7-one]
effect on DHT-induction of AR-LBD (one-hybrid luciferase) (AR-LBD): inhibited the AR-LBD dose-dependently | effect on DHT-induced two-hybrid interaction [1]: competitively inhibited | AR nuclear localization (AR): significant AR accumulation in the nucleus | activation of caspase-3 and -7 or cleavage of PARP (PC-3 cells [2]): not detected | morphology of treated cells (PC-3 cells [3]): only cell rounding
